{"source": "patent US20100062441A1", "about": "“C-MET MUTATIONS AND USES THEREOF” (priority 2007, published 2010)", "key": {"[1]": {"test_system": "MM-AN melanoma cells (minimal levels of c-MET)", "assay": "Cell growth analysis (cell counting)", "assay_type": "cell-based, human", "description": "(§1) For measuring the effect of SU11274 on growth of melanoma cells, MM-AN, MU, PM-WK, MM-RU, MM-MC and RPM-EP cells were plated at 6×10^4 cells in 60 mm dishes in MEM with 10% serum. After 24 hrs different concentrations of SU11274 were added and after 96 hrs cells were trypsinized and counted in a cell counter (Beckman Coulter). Each data point was repeated in triplicate."}, "[2]": {"test_system": "melanoma cell lines that expressed c-Met", "assay": "Cell growth analysis (cell counting)", "assay_type": "cell-based", "conditions": "Homo sapiens; 96 hrs, MEM with 10% serum", "description": "as §1"}, "[3]": {"test_system": "reactive oxygen species (ROS) in MU melanoma cells", "assay": "Reactive oxygen species measurement by DHE immunofluorescence", "assay_type": "cell-based, human", "conditions": "5 μM SU11274 for 12 hrs; HGF 40 ng/ml", "description": "5×10^4 MU melanoma cells were plated in 35 mm petri dishes. After 24 hrs MU Melanoma cells were kept in serum free media containing 0.5% BSA with and without 5 μM SU11274 for 12 hrs. Cells were treated with 40 ng/ml HGF for 7.5 min, then treated with DHE 10 μM (molecular probes Inc, Eugene, Oreg.) for 30 min, after which they were visualized under a fluorescent Olympus microscope IX81, 20× objective, ND3 and Rhodamine filter sets. Fluorescence was then quantified using Image J and graphed.\nThe endogenous levels of reactive oxygen species (ROS) was also analyzed in MU melanoma cells with and without HGF treatment using DHE by fluorescence microscopy. DHE is a redox sensitive probe that has widely been used to detect intracellular superoxide anion. The relative levels of ROS were increased in response to HGF by 47%, and SU11274 decreased the ROS response to HGF to 3%."}, "MM-RU melanoma cells": {"test_system": "MM-RU melanoma cells", "assay": "Differentiation of melanoma cells (morphology)", "assay_type": "cell-based, human", "conditions": "72 hrs with 5 μM SU11274", "excerpt": "(§2) Thus SU11274 could induce a differentiated phenotype in a wide variety of melanoma cells melanized, amelanotic, less and more differentiated melanoma cells."}, "MM-MC melanoma cells": {"test_system": "MM-MC melanoma cells", "assay": "Differentiation of melanoma cells (morphology)", "assay_type": "cell-based, human", "conditions": "72 hrs with 5 μM SU11274", "excerpt": "as §2"}, "MU melanoma cells [4]": {"test_system": "MU melanoma cells", "assay": "Proliferation / growth of melanoma cells", "assay_type": "cell-based", "conditions": "Homo sapiens", "description": "as §1\n(§3) siRNA against c-Met was obtained from Dharmacon (Lafayette, Colo.). Briefly four pooled SiRNA duplexes were transiently transfected into MU melanoma cells by the Dharmacon protocol utilizing Oligofectamine obtained from Invitrogen (Carlsbad, Calif.). Mock transfection was done in parallel using SignalSilence control SiRNA (Cell Signaling Technology) as negative control. For studies on the effect of Si RNA on differentiation proteins MU melanoma cells were transfected with Si RNA as described above and cell lysates were prepared after 12 hrs and immunoblotting performed as described above.\nThe effect of si RNA against c-Met was also studied on the proliferation and differentiation of MU melanoma cells. […] SU11274 at 5 μM and 10 μM inhibited the growth of melanoma cells by 72% and 88% respectively. […] The increase in the level of various differentiation proteins was determined by densiometric anaylsis after treatment with c-Met si RNA."}, "[5]": {"test_system": "c-Met phosphorylation in SCCHN cell lines", "assay": "c-Met phosphorylation and downstream signaling after HGF stimulation", "assay_type": "cell-based, human"}, "MU melanoma cells [6]": {"test_system": "MU melanoma cells", "assay": "Differentiation of melanoma cells (morphology)", "assay_type": "cell-based, human", "conditions": "72 hrs with 5 μM SU11274", "description": "as §2\nThe effect of si RNA against c-Met was also studied on the proliferation and differentiation of MU melanoma cells. […] SU11274 at 5 μM and 10 μM inhibited the growth of melanoma cells by 72% and 88% respectively. The inhibitory effect of SU11274 was more pronounced than si RNA since SU11274 is a potent and selective inhibitor of c-Met activity and function. […] Similar to SU11274 c-Met Si RNA 12 hrs after transfection induced an increase in MITF (4 fold) and several of the melanocyte differentiation antigens tyrosinase (4-fold), gp-100 (2-fold) and MART-1 (2-fold) which have been targets for immunotherapy. The increase in the level of various differentiation proteins was determined by densiometric anaylsis after treatment with c-Met si RNA."}, "[7]": {"test_system": "MITF, tyrosinase, gp-100, MART-1", "assay": "Immunoblotting of melanoma differentiation proteins, densiometric analysis", "assay_type": "cell-based, human", "conditions": "12 hrs after treatment; 10 μM SU11274", "excerpt": "SU11274: [(3Z)-N-(3-chlorophenyl)-3-({3,5-dimethyl-4-[(4-methylpiperazin-1-yl)carbonyl]-1H-pyrrol-2-yl}methylene)-N-methyl-2-oxo-2,3-dihydro-1H-indole-5-sulfonamide] (obtained from Pfizer Inc, San Diego, Calif.) was suspended in DMSO and kept in small aliquots at −20 degrees. Phosphospecific antibody to pY1230/1234/1235 (autophosphorylation site) was obtained from Biosource International, Camarillo, Calif. Phosphospecific antibodies for pS473 on AKT and pT421/pS424 on p70 S6-Kinase were obtained from Cell Signaling, Beverly, Mass. Total c-Met and BCLXL antibodies were obtained from Santa Cruz Biotechnology, Santa Cruz, Calif. and β-actin from Sigma Aldrich (St. Louis, Mo.). For detecting melanoma differentiation proteins the following antibodies were used anti-tyrosinase monoclonal antibody (clone T311, Nova-castra, New Castle upon Tyne, UK), anti-gp-100 monoclonal antibody (MO 634, Dako corporation, Carpinteria, Calif.) and anti-MART-1/Melan-A monoclonal antibody (clone M2-7C10, Signet, Dedham, Mass.).\nCells were lysed in lysis buffer containing 20 mM Tris, pH 8.0; 150 mM NaCl, 10% glycerol, 1% NP40, 0.42% NaF, 1 mM PMSF, 1 mM Na3V04, 10 μl/ml Protease inhibitor cocktail (Sigma Aldrich, St. Louis, Mo.) as described previously (Maulik et al., Clin Cancer Res, 8: 620-7 (2002)). Cell lysates were separated by 7.5% or 10% SDS-PAGE electrophoresis under reducing conditions. Proteins were transferred to an immobilization membrane (Bio-Rad Laboratories, Hercules, Calif.) and immunoblotted using the enhanced chemiluminescence technique (PerkinElmer Life and analytical Sciences, Torrence, Calif.).\nas §3\nIt was hypothesized that SU11274 could not only induce a differentiated phenotype, but also MITF, tyrosinase and other melanocyte associated differentiation markers. […] The increase in the level of various differentiation proteins was determined by densiometric anaylsis after treatment with 10 μM SU11274.\nThe effect of si RNA against c-Met was also studied on the proliferation and differentiation of MU melanoma cells. […] The increase in the level of various differentiation proteins was determined by densiometric anaylsis after treatment with c-Met si RNA."}}}
{"smiles": "Cc1[nH]c(/C=C2\\C(=O)Nc3ccc(S(=O)(=O)N(C)c4cccc(Cl)c4)cc32)c(C)c1C(=O)N1CCN(C)CC1", "note": "[SU11274, (3Z)-N-(3-chlorophenyl)-3-({3,5-dimethyl-4-[(4-methylpiperazin-1-yl)carbonyl]-1H-pyrrol-2-yl}methylene)-N-methyl-2-oxo-2,3-dihydro-1H-indole-5-sulfonamide]", "values": [{"measurement": "IC50 of MM-AN relative to cell lines with abundant c-Met", "setting": "[1]", "value": 2, "unit": "fold"}, {"measurement": "IC50", "setting": "[1]; Homo sapiens, MM-AN, 96 hrs", "value": 5, "unit": "µM"}, {"measurement": "IC50", "setting": "[2]", "value": "1 to 2.5", "unit": "µM"}, {"measurement": "ROS response to HGF", "setting": "[3]", "value": 3, "unit": "%"}, {"measurement": "change in morphology / differentiated phenotype", "setting": "MM-RU melanoma cells", "value": "became bipolar, tripolar or multipolar"}, {"measurement": "change in morphology / differentiated phenotype", "setting": "MM-MC melanoma cells", "value": "became bipolar, tripolar or multipolar"}, {"measurement": "inhibition at 5 µM", "setting": "MU melanoma cells [4]; 5 μM", "value": 72, "unit": "%"}, {"measurement": "inhibition at 10 µM", "setting": "MU melanoma cells [4]; 10 μM", "value": 88, "unit": "%"}, {"measurement": "c-Met phosphorylation", "setting": "[5]; all cell lines tested, HGF stimulation", "value": "Marked inhibition"}, {"measurement": "downstream phosphorylation of SHP2, AKT, ERK", "setting": "[5]; degree varied by cell line", "value": "affected downstream phosphorylation of SHP2, AKT, and to a lesser degree ERK"}, {"measurement": "change in morphology / differentiated phenotype", "setting": "MU melanoma cells [6]", "value": "became very dendritic and differentiated"}, {"measurement": "increase in levels of MART-1", "setting": "[7]", "value": 2, "unit": "fold"}, {"measurement": "increase in levels of MITF", "setting": "[7]", "value": 3, "unit": "fold"}, {"measurement": "increase in levels of gp-100", "setting": "[7]", "value": 6, "unit": "fold"}, {"measurement": "increase in levels of tyrosinase", "setting": "[7]", "value": 12, "unit": "fold"}]}
